Tests used:
Assay type in all cases: in vivo
[1] = system: crabgrass, large (large crabgrass, Digitaria sanguinalis); experiment: Test C postemergence, plant response rating; conditions: for Plant response rating, Crabgrass, Large: scale 0 to 100; for Crabgrass, Large plant response rating: scale 0 to 100 (0 no effect, 100 complete control)
Text: (§1) Seeds of plant species selected from blackgrass (Alopecurus myosuroides), ryegrass, Italian (Italian ryegrass, Lolium multiflorum), wheat (winter wheat, Triticum aestivum), galium (catchweed bedstraw, Galium aparine), corn (Zea mays), crabgrass, large (large crabgrass, Digitaria sanguinalis), foxtail, giant (giant foxtail, Setaria faberii), johnsongrass (Sorghum halepense), lambsquarters (Chenopodium album), morningglory (Ipomoea coccinea), nutsedge, yellow (yellow nutsedge, Cyperus esculentus), pigweed (Amaranthus retroflexus), ragweed (common ragweed, Ambrosia elatior), soybean (Glycine max), barnyardgrass (Echinochloa crus-galli), oilseed rape (Brassica napus), pigweed, palmer (palmer pigweed, Amaranthus palmeri), waterhemp (common waterhemp, Amaranthus rudis), velvetleaf (Abutilon theophrasti), kochia (Kochia scoparia), surinam grass (Brachiaria decumbens), nightshade (eastern black nightshade, Solanum ptycanthum), wild poinsettia (Euphorbia heterophylla), windgrass (Apera spica-venti), and oat, wild (wild oat Avena fatua), were planted into a blend of loam soil and sand or a silt loam soil and treated preemergence with test chemicals formulated in a non-phytotoxic solvent mixture which included a surfactant.
(§2) At the same time, plants selected from these crop and weed species and also chickweed (common chickweed, Stellaria media), buckwheat, wild (wild buckwheat, Polygonum convolvulus), wild mustard (Sinapis arvensis), field poppy (Papaver rhoeas), field violet (Viola arvensis), geranium, cutleaf (cutleaf geranium, Geranium dissectum), Canada thistle (Cirsium arvense), and speedwell (bird's-eye speedwell, Veronica persica), were planted in pots containing Sunshine Redi-Earth® planting medium comprising spaghnum peat moss, vermiculite, starter nutrients and dolomitic limestone and treated with postemergence applications of test chemicals formulated in the same manner. Plants ranged in height from 2 to 18 cm (1- to 4-leaf stage) for postemergence treatments. Treated plants and controls were maintained in a greenhouse for 13 to 15 d, after which time all species were compared to controls and visually evaluated. Plant response ratings, summarized in Table C, are based on a scale of 0 to 100 where 0 is no effect and 100 is complete control. A dash (-) response means no test result.

[2] = system: wheat (winter wheat, Triticum aestivum); experiment: Test C postemergence, plant response rating; conditions: for Plant response rating, Wheat: scale 0 to 100; for Wheat plant response rating: scale 0 to 100 (0 no effect, 100 complete control)
Text: as §1, §2

[3] = system: foxtail, giant (giant foxtail, Setaria faberii); experiment: Test C postemergence, plant response rating; conditions: for Plant response rating, Foxtail, Giant: scale 0 to 100; for Foxtail, Giant plant response rating: scale 0 to 100 (0 no effect, 100 complete control)
Text: as §1, §2

corn (Zea mays) = experiment: Test C postemergence, plant response rating; conditions: for Plant response rating, Corn: scale 0 to 100; for Corn plant response rating: scale 0 to 100 (0 no effect, 100 complete control)
Text: as §1, §2

[4] = system: ryegrass, Italian (Italian ryegrass, Lolium multiflorum); experiment: Test C postemergence, plant response rating; conditions: for Plant response rating, Ryegrass, Italian: scale 0 to 100; for Ryegrass, Italian plant response rating: scale 0 to 100 (0 no effect, 100 complete control)
Text: as §1, §2

soybean (Glycine max) = experiment: Test C postemergence, plant response rating; conditions: for Plant response rating, Soybean: scale 0 to 100; for Soybean plant response rating: scale 0 to 100 (0 no effect, 100 complete control)
Text: as §1, §2

[5] = system: oat, wild (wild oat Avena fatua); experiment: Test C postemergence, plant response rating; conditions: for Plant response rating, Oat, Wild: scale 0 to 100; for Oat, Wild plant response rating: scale 0 to 100 (0 no effect, 100 complete control)
Text: as §1, §2

[6] = system: nutsedge, yellow (yellow nutsedge, Cyperus esculentus); experiment: Test C postemergence, plant response rating; conditions: for Plant response rating, Nutsedge, Yellow: scale 0 to 100; for Nutsedge, Yellow plant response rating: scale 0 to 100 (0 no effect, 100 complete control)
Text: as §1, §2

[7] = system: chickweed (common chickweed, Stellaria media); experiment: Test C postemergence, plant response rating; conditions: for Plant response rating, Chickweed: scale 0 to 100; for Chickweed plant response rating: scale 0 to 100 (0 no effect, 100 complete control)
Text: as §1, §2

[8] = system: blackgrass (Alopecurus myosuroides); experiment: Test C postemergence, plant response rating; conditions: for Plant response rating, Blackgrass: scale 0 to 100; for Blackgrass plant response rating: scale 0 to 100 (0 no effect, 100 complete control)
Text: as §1, §2

[9] = system: galium (catchweed bedstraw, Galium aparine); experiment: Test C postemergence, plant response rating; conditions: for Plant response rating, Galium: scale 0 to 100; for Galium plant response rating: scale 0 to 100 (0 no effect, 100 complete control)
Text: as §1, §2

[10] = system: lambsquarters (Chenopodium album); experiment: Test C postemergence, plant response rating; conditions: for Plant response rating, Lambsquarters: scale 0 to 100; for Lambsquarters plant response rating: scale 0 to 100 (0 no effect, 100 complete control)
Text: as §1, §2

[11] = system: pigweed (Amaranthus retroflexus); experiment: Test A preemergence, visual injury rating; conditions: 0 to 100 scale (0 no effect, 100 complete control)
Summary of the method: (§3)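 Visual injury scored 0–100 (100 = complete control) against untreated controls about 10 days after treatment in a greenhouse. Test chemicals, formulated with surfactant in non-phytotoxic solvent, were sprayed on soil preemergence or on 2-10 cm, one- to two-leaf plants postemergence.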

[12] = system: giant foxtail (Setaria faberii); experiment: Test A preemergence, visual injury rating; conditions: 0 to 100 scale (0 no effect, 100 complete control)
Summary of the method: as §3

kochia (Kochia scoparia) = experiment: Test A preemergence, visual injury rating; conditions: 0 to 100 scale (0 no effect, 100 complete control)
Summary of the method: as §3

[13] = system: ragweed (common ragweed, Ambrosia elatior); experiment: Test A preemergence, visual injury rating; conditions: 0 to 100 scale (0 no effect, 100 complete control)
Summary of the method: as §3

[14] = system: barnyardgrass (Echinochloa crus-galli); experiment: Test A preemergence, visual injury rating; conditions: 0 to 100 scale (0 no effect, 100 complete control)
Summary of the method: as §3

[15] = system: Italian ryegrass (Lolium multiflorum); experiment: Test A preemergence, visual injury rating; conditions: 0 to 100 scale (0 no effect, 100 complete control)
Summary of the method: as §3

Question: N#Cc1cccc(Oc2ncc(Cl)cn2)c1CCCC(F)(F)F [Compound 72] was tested. Which “Plant response rating, Crabgrass, Large” value ([1]; 16 g ai/ha) did it give?
Answer: The value was 10.

Question: And the “Plant response rating, Crabgrass, Large” value ([1]; 31 g ai/ha)?
Answer: The value was 10.

Question: What about the “Crabgrass, Large plant response rating” value ([1]; 62 g ai/ha) of the same compound?
Answer: The value was 10.

Question: And the “Crabgrass, Large plant response rating” value ([1]; 125 g ai/ha)?
Answer: The value was 50.

Question: What about the “Plant response rating, Wheat” value ([2]; 16 g ai/ha) of the same compound?
Answer: The value was 0.

Question: What about the “Plant response rating, Wheat” value ([2]; 31 g ai/ha) of the same compound?
Answer: The value was 0.

Question: And the “Wheat plant response rating” value ([2]; 62 g ai/ha)?
Answer: Its value is 0.

Question: And the “Wheat plant response rating” value ([2]; 125 g ai/ha)?
Answer: Its value is 5.

Question: What about the “Plant response rating, Foxtail, Giant” value ([3]; 16 g ai/ha) of the same compound?
Answer: The value was 30.

Question: And the “Plant response rating, Foxtail, Giant” value ([3]; 31 g ai/ha)?
Answer: Its value is 30.

Question: What about the “Foxtail, Giant plant response rating” value ([3]; 62 g ai/ha) of the same compound?
Answer: Its value is 20.

Question: And the “Foxtail, Giant plant response rating” value ([3]; 125 g ai/ha)?
Answer: Its value is 20.

Question: What about the “Plant response rating, Corn” value (corn (Zea mays); 16 g ai/ha) of the same compound?
Answer: The value was 10.

Question: What about the “Plant response rating, Corn” value (corn (Zea mays); 31 g ai/ha) of the same compound?
Answer: Its value is 15.

Question: What about the “Corn plant response rating” value (corn (Zea mays); 62 g ai/ha) of the same compound?
Answer: The value was 10.

Question: What about the “Corn plant response rating” value (corn (Zea mays); 125 g ai/ha) of the same compound?
Answer: The value was 20.

Question: And the “Plant response rating, Ryegrass, Italian” value ([4]; 16 g ai/ha)?
Answer: Its value is 5.

Question: And the “Plant response rating, Ryegrass, Italian” value ([4]; 31 g ai/ha)?
Answer: Its value is 5.

Question: And the “Ryegrass, Italian plant response rating” value ([4]; 62 g ai/ha)?
Answer: Its value is 10.

Question: And the “Ryegrass, Italian plant response rating” value ([4]; 125 g ai/ha)?
Answer: Its value is 15.

Question: And the “Plant response rating, Soybean” value (soybean (Glycine max); 16 g ai/ha)?
Answer: Its value is 60.

Question: What about the “Plant response rating, Soybean” value (soybean (Glycine max); 31 g ai/ha) of the same compound?
Answer: The value was 70.

Question: What about the “Soybean plant response rating” value (soybean (Glycine max); 62 g ai/ha) of the same compound?
Answer: Its value is 40.

Question: What about the “Soybean plant response rating” value (soybean (Glycine max); 125 g ai/ha) of the same compound?
Answer: The value was 70.

Question: What about the “Plant response rating, Oat, Wild” value ([5]; 16 g ai/ha) of the same compound?
Answer: The value was 5.

Question: And the “Plant response rating, Oat, Wild” value ([5]; 31 g ai/ha)?
Answer: The value was 5.

Question: And the “Oat, Wild plant response rating” value ([5]; 62 g ai/ha)?
Answer: The value was 5.

Question: And the “Oat, Wild plant response rating” value ([5]; 125 g ai/ha)?
Answer: The value was 10.

Question: What about the “Plant response rating, Nutsedge, Yellow” value ([6]; 16 g ai/ha) of the same compound?
Answer: The value was 5.

Question: What about the “Plant response rating, Nutsedge, Yellow” value ([6]; 31 g ai/ha) of the same compound?
Answer: The value was 10.

Question: And the “Nutsedge, Yellow plant response rating” value ([6]; 62 g ai/ha)?
Answer: The value was 10.

Question: And the “Nutsedge, Yellow plant response rating” value ([6]; 125 g ai/ha)?
Answer: Its value is 15.

Question: And the “Plant response rating, Chickweed” value ([7]; 16 g ai/ha)?
Answer: Its value is 65.

Question: What about the “Plant response rating, Chickweed” value ([7]; 31 g ai/ha) of the same compound?
Answer: Its value is 85.

Question: And the “Chickweed plant response rating” value ([7]; 62 g ai/ha)?
Answer: Its value is 90.

Question: What about the “Chickweed plant response rating” value ([7]; 125 g ai/ha) of the same compound?
Answer: Its value is 98.

Question: What about the “Plant response rating, Blackgrass” value ([8]; 16 g ai/ha) of the same compound?
Answer: Its value is 5.

Question: What about the “Plant response rating, Blackgrass” value ([8]; 31 g ai/ha) of the same compound?
Answer: Its value is 10.

Question: And the “Blackgrass plant response rating” value ([8]; 62 g ai/ha)?
Answer: The value was 10.

Question: And the “Blackgrass plant response rating” value ([8]; 125 g ai/ha)?
Answer: The value was 30.

Question: What about the “Plant response rating, Galium” value ([9]; 16 g ai/ha) of the same compound?
Answer: Its value is 80.

Question: And the “Plant response rating, Galium” value ([9]; 31 g ai/ha)?
Answer: Its value is 80.

Question: And the “Galium plant response rating” value ([9]; 62 g ai/ha)?
Answer: The value was 5.

Question: And the “Galium plant response rating” value ([9]; 125 g ai/ha)?
Answer: Its value is 98.

Question: What about the “Plant response rating, Lambsquarters” value ([10]; 16 g ai/ha) of the same compound?
Answer: The value was 75.

Question: What about the “Plant response rating, Lambsquarters” value ([10]; 31 g ai/ha) of the same compound?
Answer: Its value is 85.

Question: What about the “Lambsquarters plant response rating” value ([10]; 62 g ai/ha) of the same compound?
Answer: The value was 75.

Question: What about the “Lambsquarters plant response rating” value ([10]; 125 g ai/ha) of the same compound?
Answer: The value was 85.

Question: And the “Pigweed plant response rating” value ([11]; 125 g ai/ha)?
Answer: The value was 100.

Question: And the “Pigweed plant response rating” value ([11]; 500 g ai/ha)?
Answer: The value was 100.

Question: And the “Foxtail, Giant plant response rating” value ([12]; 125 g ai/ha)?
Answer: The value was 90.

Question: And the “Foxtail, Giant plant response rating” value ([12]; 500 g ai/ha)?
Answer: The value was 100.

Question: What about the “Kochia plant response rating” value (kochia (Kochia scoparia); 125 g ai/ha) of the same compound?
Answer: Its value is 90.

Question: What about the “Kochia plant response rating” value (kochia (Kochia scoparia); 500 g ai/ha) of the same compound?
Answer: Its value is 100.

Question: What about the “Ragweed plant response rating” value ([13]; 125 g ai/ha) of the same compound?
Answer: Its value is 0.

Question: What about the “Ragweed plant response rating” value ([13]; 500 g ai/ha) of the same compound?
Answer: The value was 10.

Question: What about the “Barnyardgrass plant response rating” value ([14]; 125 g ai/ha) of the same compound?
Answer: Its value is 90.

Question: And the “Barnyardgrass plant response rating” value ([14]; 500 g ai/ha)?
Answer: Its value is 100.

Question: What about the “Ryegrass, Italian plant response rating” value ([15]; 125 g ai/ha) of the same compound?
Answer: The value was 10.

Question: What about the “Ryegrass, Italian plant response rating” value ([15]; 500 g ai/ha) of the same compound?
Answer: Its value is 30.
